Test results as given in US4285956A, “Xanthene and thioxanthene derivatives, compositions thereof and treatment therewith” (priority 1978, dated 1981).
“Also recorded” adds a separate entry of the source.

Tests used:
[1] = Neuroleptic effect: duration and strength (remarks of Table 2); type: in vivo; settings: in words; for Duration (remarks, words): duration of neuroleptic effect; for Strength of effect (remarks, words): strength of neuroleptic effect
Excerpt: The pharmacological testing of the novel xanthones and thioxanthenes of Formula I consisted of standard and reliable tests. […]

[2] = Methylphenidate antagonism (mice biting corrugated paper); type: in vivo; settings: mice, i.p.; for ED50: Mus musculus, ip
Protocol: Methylphenidate antagonism (ED50 mg/kg i.p.)
Perspex observation cages without bottom and lid, consisting of 5 sections each measuring 12×25×30 cm. White corrugated paper. Mice, male, 18-25 g.
The test substance is given i.p. in the doses 0, 1/8, 1/32 and 1/128 of the determined "i.p. LD50". 3×2 mice are used for each dose level. Two or 24 hours after injection of test substance, methylphenidate, 60 mg/kg, is injected s.c. After administration of methylphenidate the mice are placed in the observation cages, 2 in each cage, where they remain for exactly 1 hour. The cages are placed on corrugated paper, the corrugations facing upwards. It is examined whether the mice have been biting the corrugated paper or not. […] If one or more of the control pairs have not been biting, the test has to be repeated on a new set of mice.
The result is stated in fractions: 0/3, 1/3, 2/3 and 3/3 where 0, 1, 2 and 3 are the number of pairs which have not been biting on receipt of the dose in question.
The results are calculated as the dose (ED50), which causes antagonism in 50% of the test animals.

[3] = Catalepsy wire mesh, rat, max.; type: in vivo, rats; settings: for ED50: Rattus norvegicus, sc, rats, s.c., strongest effect within first 6 hours, read-out: Catalepsy wire mesh, rat, max. ED50; for Cataleptic activity: in words
Protocol: Catalepsy wire mesh, rat, max. (ED50 mg/kg s.c.)
A vertical wire netting (50 cm×49 cm). The meshes (openings) of the netting are square (1 cm×1 cm). The wire diameter is 2 mm. Stop watch. Rats, male, 180-200 g.
The animals are labeled and used in groups of five. The test substance is injected subcutaneously (s.c.) (5 ml/kg) at 4 dose levels selected from the fixed dose scale.
The animals are placed in the middle of the vertical wire netting 60, 120, 180, 240, 300 and 360 minutes after injection of the test compound. The animals are considered cataleptic when they remain immobile during a period of 15 seconds. This cataleptic reaction is designated +. If the rats are "atonic" and passively slide down the wire mesh they are considered not cataleptic. If the animals climb up and down the wire mesh they are nor cataleptic. In both situations the designation - is used.

[4] = Amphetamine antagonism (stereotypy in rats); type: in vivo; settings: Rattus norvegicus, ip, 24 h, read-out: Amphetamine antagonism ED50
[5] = methylphenidate 60 mg/kg s.c. 2 h after test substance, read-out: Methylphenidate antagonism ED50, 2 h
[6] = methylphenidate 60 mg/kg s.c. 24 h after test substance, read-out: Methylphenidate antagonism ED50, 24 h

| Compound | Duration (remarks, words) [1] | Strength of effect (remarks, words) [1] | Methylphenidate antagonism ED50, 2 h ([2]; methylphenidate 60 mg/kg s.c. 2 h after test substance) | Methylphenidate antagonism ED50, 24 h ([2]; methylphenidate 60 mg/kg s.c. 24 h after test substance) | ED50 [3] | Cataleptic activity [3] | ED50 [4] | ED50 [2, 5] | ED50 [2, 6] |
| --- | --- | --- | --- | --- | --- | --- | --- | --- | --- |
| 1-(2-Oxazolidinon-3-yl)ethyl)-4-(2-fluoro-6-methyl-9-thioxanthenylidene)-piperidine [Lu-15-062] | short acting | moderately strong | 0.51 mg/kg | > 40 mg/kg |  |  |  |  |  |
| O[C@H]1CCC[C@H](CN2CCC(=C3c4ccc(F)cc4Sc4ccc(C(F)(F)F)cc43)CC2)C1 (relative stereo) [Lu 15-030, 1-(trans-3-hydroxycyclohexylmethyl)-4-(2-trifluoromethyl-6-fluoro-9-thioxanthenylidene)-piperidine] | long acting | very strong |  |  | 0.39 mg/kg | have a cataleptic activity | 0.88 mg/kg | 0.28 mg/kg | 0.05 mg/kg |
| O[C@@H]1CC[C@H](CN2CCC(=C3c4ccccc4Sc4ccc(Cl)cc43)CC2)C[C@H]1O (relative stereo) [Lu 15-041, 1-(3-trans-4-cis-dihydroxycyclohexylmethyl)-4-(2-chloro-9-thioxanthenylidene)piperidine] | moderately long acting | strong |  |  |  |  | < 0.31 mg/kg | 0.62 mg/kg | 3.6 mg/kg |
| O[C@@H]1CC[C@H](CN2CCC(=C3c4ccc(F)cc4Sc4ccc(C(F)(F)F)cc43)CC2)C[C@H]1O (relative stereo) [Lu 15-052, 1-(3-trans-4-cis-dihydroxycyclohexylmethyl)-4-(2-trifluoromethyl-6-fluoro-9-thioxanthenylidene)-piperidine] | long acting | strong; also recorded: very strong |  |  | 0.026 mg/kg | have a cataleptic activity | 0.9 mg/kg | 0.32 mg/kg | 0.06 mg/kg |
| O[C@@H]1CC[C@H](CN2CCC(=C3c4ccc(F)cc4Sc4ccc(Cl)cc43)CC2)C[C@H]1O (relative stereo) [Lu 15-070, 1-(3-trans-4-cis-dihydroxycyclohexylmethyl)-4-(2-chloro-6-fluoro-9-thioxanthenylidene)-piperidine] | moderately long acting |  |  |  |  |  |  | 0.51 mg/kg | 0.5 mg/kg |
| O[C@H]1CCCC[C@H]1CN1CCC(=C2c3ccc(F)cc3Sc3ccc(C(F)(F)F)cc32)CC1 (relative stereo) [Lu 15-138, 1-(cis-2-hydroxycyclohexylmethyl)-4-(2-trifluoromethyl-6-fluoro-9-thioxanthenylidene)-piperidine] | long acting | strong |  |  |  |  | 1.7 mg/kg | 1.3 mg/kg | 0.15 mg/kg |
| O[C@H]1CC[C@H](CN2CCC(=C3c4ccccc4Sc4ccc(Cl)cc43)CC2)CC1 [Lu 14-047, 1-(trans-4-hydroxycyclohexylmethyl)-4-(2-chloro-9-thioxanthenylidene)-piperidine] | short acting | strong |  |  | 3.5 mg/kg |  | 0.32 mg/kg | 0.59 mg/kg | > 20 mg/kg |
| Cc1ccc2c(c1)C(=C1CCN(CCN3CCOC3=O)CC1)c1ccc(F)cc1S2 [Lu 14-070, 1-(2-(2-Oxazolidinon-3-yl)ethyl)-4-(2-methyl-6-fluoro-9-thioxanthenylidene)-piperidine] | short acting | moderately strong |  |  | 1.8 mg/kg |  | 1.3 mg/kg | 0.32 mg/kg | > 40 mg/kg |
| Cc1ccc2c(c1)C(=C1CCN(C[C@H]3CC[C@H](O)CC3)CC1)c1ccc(F)cc1S2 [Lu 14-082, 1-(trans-4-hydroxycyclohexylmethyl)-4-(2-methyl-6-fluoro-9-thioxanthenylidene)-piperidine] | short acting | moderately strong |  |  |  |  |  | 0.79 mg/kg | > 10 mg/kg |
| Cc1ccc2c(c1)Sc1ccc(F)cc1C2=C1CCN(C[C@H]2CC[C@H](O)CC2)CC1 [Lu 14-090, 1-(trans-4-hydroxycyclohexylmethyl)-4-(2-fluoro-6-methyl-9-thioxanthenylidene)-piperidine] | short acting | moderately strong |  |  |  |  |  | 1.25 mg/kg | 32 mg/kg |
| O[C@H]1CC[C@H](CN2CCC(=C3c4ccc(F)cc4Sc4ccc(Cl)cc43)CC2)CC1 [Lu 14-114, 1-(trans-4-hydroxycyclohexylmethyl)-4-(2-chloro-6-fluoro-9-thioxanthenylidene)-piperidine] | short acting | strong |  |  |  |  | 0.35 mg/kg | 0.1 mg/kg | 6.6 mg/kg |
| OC1COC(CN2CCC(=C3c4ccccc4Sc4ccc(Cl)cc43)CC2)OC1 (stereo not drawn) [Lu 14-140, 1-(5-hydroxy-1,3-dioxan-2-yl)methyl-4-(2-chloro-9-thioxanthenylidene)-piperidine] | short acting | strong |  |  |  |  |  | 0.77 mg/kg | > 40 mg/kg |
| O[C@H]1CC[C@@H](CN2CCC(=C3c4ccccc4Sc4ccc(Cl)cc43)CC2)CC1 [Lu 15-014, 1-(Cis-4-hydroxycyclohexylmethyl)-4-(2-chloro-9-thioxanthenylidene)-piperidine] | short acting | strong |  |  | 2.5 mg/kg |  |  | 0.2 mg/kg | > 10 mg/kg |
| Fc1ccc2c(c1)Sc1ccc(C(F)(F)F)cc1C2=C1CCN(CC2CCOCC2)CC1 [Lu 15-031, 1-(4-tetrahydropyranylmethyl)-4-(2-trifluoromethyl-6-fluoro-9-thioxanthenylidene)piperidine] | long acting | moderately strong |  |  |  |  | 1.3 mg/kg | 0.52 mg/kg | 0.55 mg/kg |
| CC1(O)CCC(CN2CCC(=C3c4ccc(F)cc4Sc4ccc(C(F)(F)F)cc43)CC2)CC1 (stereo not drawn) [Lu 15-048, 1-(4-hydroxy-4-methylcyclohexylmethyl)-4-(2-trifluoromethyl-6-fluoro-9-thioxanthenylidene)-piperidine] | long acting | strong |  |  |  |  | < 0.31 mg/kg | 1.3 mg/kg | 0.13 mg/kg |
| O[C@H]1CC[C@H](CN2CCC(=C3c4ccc(F)cc4Sc4cc(F)ccc43)CC2)CC1 [Lu 15-062, 1-(trans-4-hydroxycyclohexylmethyl)-4-(3,6-di-fluoro-9-thioxanthenylidene)-piperidine] | short acting | moderately strong |  |  |  |  | 0.85 mg/kg | 0.77 mg/kg | > 10 mg/kg |
| CC(=O)N[C@H]1CC[C@H](CN2CCC(=C3c4ccc(F)cc4Sc4ccc(C(F)(F)F)cc43)CC2)CC1 [Lu 16-043] | long acting | relatively strong |  |  | > 20 mg/kg |  |  | > 10 mg/kg | 0.42 mg/kg |
| CS(=O)(=O)c1ccc2c(c1)C(=C1CCN(C[C@H]3CC[C@H](O)CC3)CC1)c1ccccc1S2 [Lu 16-066, 1-(Trans-4-hydroxycyclohexylmethyl)-4-(2-methylsulfonyl-9-thioxanthenylidene)piperidine] | short acting | moderately strong |  |  | 0.25 mg/kg |  |  | 0.73 mg/kg | > 10 mg/kg |
| N[C@H]1CC[C@H](CN2CCC(=C3c4ccccc4Sc4ccc(Cl)cc43)CC2)CC1 [Lu 16-081] | short acting | moderately strong |  |  |  |  |  | 0.5 mg/kg | ~10 mg/kg |
| CN(C)S(=O)(=O)c1ccc2c(c1)C(=C1CCN(C[C@H]3CC[C@H](O)CC3)CC1)c1ccc(F)cc1S2 [Lu 16-107, 1-(Trans-4-hydroxycyclohexylmethyl)-4-(2-dimethylsulfamoyl-6-fluoro-9-thioxanthenylidene)piperidine] | long acting | moderately strong |  |  | 0.28 mg/kg |  |  | 1.9 mg/kg | 0.76 mg/kg |
